Laboratory results published in ChEMBL document CHEMBL1201862, “PubChem BioAssay data set” (2004).
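Protocol summary: plate cells (96-well), add compound at 5 concentrations, incubate 48 h, interpolate endpoints linearly. The concentration for 50% growth inhibition is given as GI50.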 The source made the active and inactive calls. No stated cut-off is given here; in the data, active = GI50 up to about 1.1 µM and inactive = higher.

Key:
Test in all cases: growth of human tumour cells (NCI), 48 h
A498 = tested on: A498
ACHN = tested on: ACHN
CCRF-CEM = tested on: CCRF-CEM
HCC 2998 = tested on: HCC 2998
HL-60 = tested on: HL-60
HOP-92 = tested on: HOP-92
KM12 = tested on: KM12
LOX IMVI = tested on: LOX IMVI
NCI-H226 = tested on: NCI-H226
NCI-H460 = tested on: NCI-H460
OVCAR-3 = tested on: OVCAR-3
SF-268 = tested on: SF-268
SK-MEL-28 = tested on: SK-MEL-28
SNB-19 = tested on: SNB-19
SNB-75 = tested on: SNB-75
UACC-257 = tested on: UACC-257
UO-31 = tested on: UO-31
OVCAR-5 = tested on: OVCAR-5

Measured: GI50

COc1ccc(CN2CC(C)(C)C2=O)c(OC)c1
inactive: A498 > 100 µM | ACHN > 100 µM | CCRF-CEM > 100 µM | HCC 2998 > 100 µM | HL-60 > 100 µM | HOP-92 > 100 µM | KM12 > 100 µM | LOX IMVI > 100 µM | NCI-H226 > 100 µM | NCI-H460 > 100 µM | OVCAR-3 > 100 µM | SF-268 > 100 µM | SK-MEL-28 > 100 µM | SNB-19 > 100 µM | SNB-75 70.8 µM | UACC-257 > 100 µM | UO-31 > 100 µM

O=C(CC(=O)C1CCOC1=O)C(=O)Nc1ccc(Cl)cc1 (stereo not given)
inactive: A498 > 100 µM | ACHN > 100 µM | CCRF-CEM > 100 µM | HCC 2998 > 100 µM | HL-60 > 100 µM | HOP-92 > 100 µM | KM12 > 100 µM | LOX IMVI > 100 µM | NCI-H226 > 100 µM | NCI-H460 > 100 µM | OVCAR-3 > 100 µM | OVCAR-5 > 100 µM | SF-268 > 100 µM | SK-MEL-28 > 100 µM | SNB-19 > 100 µM | SNB-75 > 100 µM | UACC-257 > 100 µM | UO-31 > 100 µM

CN(C)CC/[N+]([O-])=C(/c1ccccc1)C12CC3CC(CC(C3)C1)C2
inactive: A498 18.3 µM | ACHN 16.3 µM | CCRF-CEM 15.8 µM | HCC 2998 22.2 µM | HL-60 11.8 µM | HOP-92 14.1 µM | KM12 18.3 µM | LOX IMVI 15.3 µM | NCI-H226 12.5 µM | NCI-H460 18.4 µM | OVCAR-3 14.7 µM | OVCAR-5 17.7 µM | SF-268 20.9 µM | SK-MEL-28 16.2 µM | SNB-19 18.2 µM | SNB-75 11.9 µM | UACC-257 15.9 µM | UO-31 11.9 µM

CC(CC(=O)Nc1ccc(NC(=O)CC(C)/N=N\C(N)=O)cc1)/N=N\C(N)=O (stereo not given)
inactive: A498 > 100 µM | ACHN > 100 µM | CCRF-CEM > 100 µM | HCC 2998 > 100 µM | HL-60 > 100 µM | HOP-92 > 100 µM | KM12 > 100 µM | LOX IMVI 24.7 µM | NCI-H226 > 100 µM | NCI-H460 50.9 µM | OVCAR-3 > 100 µM | OVCAR-5 > 100 µM | SF-268 > 100 µM | SK-MEL-28 > 100 µM | SNB-19 > 100 µM | SNB-75 > 100 µM | UACC-257 > 100 µM | UO-31 > 100 µM

COc1ccc2cc3nc(O)cc(O)c3cc2c1OC
inactive: A498 > 100 µM | ACHN > 100 µM | CCRF-CEM > 100 µM | HCC 2998 > 100 µM | HL-60 > 100 µM | HOP-92 > 100 µM | KM12 > 100 µM | LOX IMVI > 100 µM | NCI-H226 > 100 µM | NCI-H460 > 100 µM | OVCAR-3 > 100 µM | OVCAR-5 > 100 µM | SF-268 > 100 µM | SK-MEL-28 > 100 µM | SNB-19 > 100 µM | SNB-75 > 100 µM | UACC-257 > 100 µM | UO-31 > 100 µM

COc1ccc(C2=NNC(=O)OC2c2ccccc2)cc1 (stereo not given)
inactive: A498 49.4 µM | ACHN > 100 µM | CCRF-CEM 48.3 µM | HCC 2998 34.1 µM | HL-60 67.5 µM | HOP-92 43.6 µM | KM12 40.9 µM | LOX IMVI 55 µM | NCI-H226 34.3 µM | NCI-H460 53.2 µM | OVCAR-3 81.8 µM | OVCAR-5 > 100 µM | SF-268 72.6 µM | SK-MEL-28 > 100 µM | SNB-19 67.1 µM | SNB-75 28.1 µM | UACC-257 28.9 µM | UO-31 > 100 µM

C/C(=N\NS(=O)(=O)c1ccccc1)c1ccc(Cl)c(Cl)c1
inactive: A498 41.8 µM | ACHN 46.6 µM | CCRF-CEM > 100 µM | HCC 2998 71.1 µM | HL-60 97.3 µM | HOP-92 67 µM | KM12 71.1 µM | LOX IMVI 78.9 µM | NCI-H226 62.8 µM | NCI-H460 46.1 µM | OVCAR-3 25.3 µM | OVCAR-5 > 100 µM | SF-268 > 100 µM | SK-MEL-28 63.4 µM | SNB-75 50 µM | UACC-257 50 µM | UO-31 45.4 µM

Cc1[nH]c2ccccc2c1C1Cc2ccccc2N1C(=O)/C=C/C=C/c1ccccc1 (stereo not given)
inactive: A498 > 100 µM | ACHN > 100 µM | CCRF-CEM 58.2 µM | HCC 2998 > 100 µM | HL-60 27.5 µM | HOP-92 > 100 µM | KM12 > 100 µM | LOX IMVI > 100 µM | NCI-H226 > 100 µM | NCI-H460 > 100 µM | OVCAR-3 13.1 µM | OVCAR-5 > 100 µM | SK-MEL-28 > 100 µM | SNB-19 > 100 µM | SNB-75 > 100 µM | UACC-257 33 µM | UO-31 > 100 µM

O=C1C2Nc3ccccc3SC2C(=O)N1c1cccc([N+](=O)[O-])c1 (stereo not given)
inactive: A498 > 100 µM | ACHN > 84.1 µM | CCRF-CEM 86.7 µM | HCC 2998 10.7 µM | HL-60 > 100 µM | HOP-92 > 100 µM | KM12 17 µM | LOX IMVI > 71.1 µM | NCI-H226 > 86.9 µM | NCI-H460 50.2 µM | OVCAR-3 > 100 µM | OVCAR-5 13.4 µM | SF-268 > 100 µM | SK-MEL-28 > 100 µM | SNB-19 > 100 µM | SNB-75 > 100 µM | UACC-257 > 100 µM | UO-31 > 90.2 µM

O=C1OC(O)C(Oc2ccc(Cl)cc2)=C1Cl (stereo not given)
inactive: A498 > 100 µM | ACHN > 100 µM | CCRF-CEM > 100 µM | HCC 2998 > 100 µM | HL-60 > 100 µM | HOP-92 > 100 µM | KM12 > 100 µM | LOX IMVI > 100 µM | NCI-H226 > 100 µM | NCI-H460 > 100 µM | OVCAR-3 > 100 µM | OVCAR-5 > 100 µM | SF-268 > 100 µM | SK-MEL-28 > 100 µM | SNB-19 > 100 µM | SNB-75 > 100 µM | UACC-257 > 100 µM | UO-31 > 100 µM

CCOC(=O)c1cn2c([nH]c3ccccc32)c(C#N)c1=O
inactive: A498 > 100 µM | ACHN > 100 µM | CCRF-CEM 52.4 µM | HCC 2998 > 100 µM | HL-60 25.8 µM | HOP-92 > 100 µM | KM12 > 100 µM | LOX IMVI 25.7 µM | NCI-H226 > 100 µM | NCI-H460 47 µM | OVCAR-3 > 100 µM | OVCAR-5 > 100 µM | SF-268 > 100 µM | SK-MEL-28 > 100 µM | SNB-19 > 100 µM | SNB-75 > 100 µM | UACC-257 > 100 µM | UO-31 98.2 µM
